Measurements: ChEMBL document CHEMBL1201862, “PubChem BioAssay data set” (2004)
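Growth conditions: 96-well plates. Treatment: test compound, 48 hours, 5 concentrations. Analysis: linear interpolation between bracketing concentrations; unreached endpoints set to highest concentration. GI50 marks 50% less growth.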 The source made the active and inactive calls. No stated cut-off is given here; in the data, active = GI50 up to about 1.1 µM and inactive = higher.

Tests used:
Test in all cases: DTP human tumour cell line panel, 48 h
NCI-H522 = system: NCI-H522
OVCAR-3 = system: OVCAR-3
UACC-62 = system: UACC-62
HT-29 = system: HT-29
DU-145 = system: DU-145
CAKI-1 = system: CAKI-1
Malme-3M = system: Malme-3M
Hs-578T = system: Hs-578T
U-251 = system: U-251
MDA-MB-231 = system: MDA-MB-231
HCT-116 = system: HCT-116
T47D = system: T47D
PC-3 = system: PC-3
K562 = system: K562
NCI-H460 = system: NCI-H460
SK-MEL-28 = system: SK-MEL-28
SN12C = system: SN12C
COLO 205 = system: COLO 205
ACHN = system: ACHN
RXF 393 = system: RXF 393

| Compound | GI50 (NCI-H522) | GI50 (OVCAR-3) | GI50 (UACC-62) | GI50 (HT-29) | GI50 (DU-145) | GI50 (CAKI-1) | GI50 (Malme-3M) | GI50 (Hs-578T) | GI50 (U-251) | GI50 (MDA-MB-231) | GI50 (HCT-116) | GI50 (T47D) | GI50 (PC-3) | GI50 (K562) | GI50 (NCI-H460) | GI50 (SK-MEL-28) | GI50 (SN12C) | GI50 (COLO 205) | GI50 (ACHN) | GI50 (RXF 393) |
| --- | --- | --- | --- | --- | --- | --- | --- | --- | --- | --- | --- | --- | --- | --- | --- | --- | --- | --- | --- | --- |
| C[C@H](CCC1=NCCN1)[C@H]1CC[C@H]2[C@@H]3CC[C@@H]4C[C@H](O)CC[C@]4(C)[C@H]3C[C@H](O)[C@]12C | 5.75 µM (inactive) | 12.1 µM (inactive) | 13.5 µM (inactive) | 10.5 µM (inactive) | 15.6 µM (inactive) | 20.4 µM (inactive) | 13.7 µM (inactive) | 11.4 µM (inactive) | 8.11 µM (inactive) | 14.9 µM (inactive) | 20.5 µM (inactive) | 13.6 µM (inactive) | 4.57 µM (inactive) | 5.38 µM (inactive) | 13.9 µM (inactive) | 18.6 µM (inactive) | 16.9 µM (inactive) | 10.2 µM (inactive) | 16.9 µM (inactive) | 18 µM (inactive) |
| CC1(C)CC[C@]2(C)[C@@H](O)C[C@]3(C)C(=CC[C@@H]4[C@@]5(C)CC[C@H](O)C(C)(C)[C@@H]5CC[C@]43C)[C@@H]2C1 | 25.7 µM (inactive) | 65.2 µM (inactive) | 58.7 µM (inactive) | 39.2 µM (inactive) | 40.6 µM (inactive) | 34.5 µM (inactive) | 29.4 µM (inactive) | 24.4 µM (inactive) | 28.7 µM (inactive) | 16.8 µM (inactive) | 41.5 µM (inactive) | 9.79 µM (inactive) | 29 µM (inactive) | > 100 µM (inactive) | 41.2 µM (inactive) | > 100 µM (inactive) | 56.9 µM (inactive) | 48.6 µM (inactive) | 41.4 µM (inactive) | 7.24 µM (inactive) |
| C[N+](C)([O-])C12CC3CC(CC(C3)C1)C2 | 27.2 µM (inactive) | 16.4 µM (inactive) | 20.1 µM (inactive) | 35.6 µM (inactive) | 37.2 µM (inactive) | > 100 µM (inactive) | 54.3 µM (inactive) | 55.6 µM (inactive) | 37.4 µM (inactive) | > 100 µM (inactive) | 23.9 µM (inactive) | 26.9 µM (inactive) | 22.4 µM (inactive) | 29.4 µM (inactive) | 43.7 µM (inactive) | 32.4 µM (inactive) | 33.7 µM (inactive) | 27 µM (inactive) | 26.4 µM (inactive) | 37.5 µM (inactive) |
| CC(=O)Nc1[nH]c(C#N)nc1C#N | > 100 µM (inactive) | > 100 µM (inactive) | > 100 µM (inactive) | > 100 µM (inactive) | > 100 µM (inactive) | > 100 µM (inactive) | > 100 µM (inactive) | > 100 µM (inactive) | > 100 µM (inactive) | > 100 µM (inactive) | > 100 µM (inactive) | > 100 µM (inactive) | > 100 µM (inactive) | > 100 µM (inactive) | > 100 µM (inactive) | > 100 µM (inactive) | > 100 µM (inactive) | > 100 µM (inactive) | > 100 µM (inactive) | > 100 µM (inactive) |
| COc1cc(C2CC(C)(O)Oc3cc4c(cc32)OCO4)cc(OC)c1OC (stereo not given) | 0.266 µM (active) | 0.315 µM (active) | 0.23 µM (active) | 0.334 µM (active) | 0.546 µM (active) | 0.417 µM (active) | 0.205 µM (active) | 0.263 µM (active) | 0.358 µM (active) | 0.252 µM (active) | 0.449 µM (active) | 0.296 µM (active) | 0.274 µM (active) | 0.386 µM (active) | 0.389 µM (active) | 0.569 µM (active) | 0.977 µM (active) | 0.419 µM (active) | 0.708 µM (active) | 0.137 µM (active) |
| O=C(O)c1ccccc1/N=N/c1c(O)c(S(=O)(=O)O)cc2cc(S(=O)(=O)O)ccc12 | > 100 µM (inactive) | > 100 µM (inactive) | > 100 µM (inactive) | > 100 µM (inactive) | > 100 µM (inactive) | > 100 µM (inactive) | > 100 µM (inactive) | > 100 µM (inactive) | > 100 µM (inactive) | > 100 µM (inactive) | > 100 µM (inactive) | > 100 µM (inactive) | > 100 µM (inactive) | > 100 µM (inactive) | > 100 µM (inactive) | > 100 µM (inactive) | > 100 µM (inactive) | > 100 µM (inactive) | > 100 µM (inactive) | > 100 µM (inactive) |
| O=C(O)C/C=C/CC(=O)O | > 100 µM (inactive) | > 100 µM (inactive) | > 100 µM (inactive) | > 100 µM (inactive) | > 100 µM (inactive) | > 100 µM (inactive) | > 100 µM (inactive) | > 100 µM (inactive) | > 100 µM (inactive) | > 100 µM (inactive) | > 100 µM (inactive) | > 100 µM (inactive) | > 100 µM (inactive) | 67.1 µM (inactive) | > 100 µM (inactive) | > 100 µM (inactive) | 25.7 µM (inactive) | > 100 µM (inactive) | > 100 µM (inactive) | > 100 µM (inactive) |
| CC(C)(C)C(=O)Oc1ccc(/C=C/C(=O)c2ccc(OC(=O)C(C)(C)C)cc2)cc1 | 3.12 µM (inactive) | 27.5 µM (inactive) | > 100 µM (inactive) | 47.3 µM (inactive) | 41 µM (inactive) | 21.1 µM (inactive) | > 100 µM (inactive) | 18 µM (inactive) | 40.2 µM (inactive) | > 100 µM (inactive) | 23.3 µM (inactive) | 91.2 µM (inactive) | > 100 µM (inactive) | 26.3 µM (inactive) | > 100 µM (inactive) | 97.3 µM (inactive) | 42.8 µM (inactive) | 69.7 µM (inactive) | > 100 µM (inactive) | 38.8 µM (inactive) |
| CCC1(CC)C(=O)NN(C(=O)c2ccc(Cl)cc2)C1=O | 32.1 µM (inactive) | > 100 µM (inactive) | > 100 µM (inactive) | > 100 µM (inactive) | > 100 µM (inactive) | > 100 µM (inactive) | 0.23 µM (active) | > 100 µM (inactive) | > 100 µM (inactive) | > 100 µM (inactive) | > 100 µM (inactive) | > 100 µM (inactive) | > 100 µM (inactive) | > 100 µM (inactive) | > 100 µM (inactive) | > 100 µM (inactive) | > 100 µM (inactive) | > 100 µM (inactive) | > 100 µM (inactive) | > 100 µM (inactive) |
| CC(C)C(Br)CC/C(CBr)=C(\Cl)CCl (stereo not given) | 0.689 µM (active) | 3.3 µM (inactive) | 2.49 µM (inactive) | 2.07 µM (inactive) | 12.6 µM (inactive) | 4.98 µM (inactive) | 5.37 µM (inactive) | 3.11 µM (inactive) | 6.25 µM (inactive) | 2.64 µM (inactive) | 2 µM (inactive) | 1.63 µM (inactive) | 6.08 µM (inactive) | 0.682 µM (active) | 12.5 µM (inactive) | 2.83 µM (inactive) | 2.99 µM (inactive) | 3.4 µM (inactive) | 15 µM (inactive) | 1.81 µM (inactive) |
| COC(=O)C1(NC(=O)C(N)CC(=O)O)C(C)C1C (stereo not given) | > 100 µM (inactive) | > 100 µM (inactive) | > 100 µM (inactive) | > 100 µM (inactive) | > 100 µM (inactive) | > 100 µM (inactive) | > 100 µM (inactive) | > 100 µM (inactive) | > 100 µM (inactive) | > 100 µM (inactive) | > 100 µM (inactive) | > 100 µM (inactive) | > 100 µM (inactive) | > 100 µM (inactive) | > 100 µM (inactive) | > 100 µM (inactive) | > 100 µM (inactive) | > 100 µM (inactive) | > 100 µM (inactive) | > 100 µM (inactive) |
| Cc1cc2c3c(c1)CCCN3CCC2 | > 10 µM (inactive) | > 10 µM (inactive) | > 10 µM (inactive) | > 10 µM (inactive) | > 10 µM (inactive) | > 10 µM (inactive) | > 10 µM (inactive) | > 10 µM (inactive) | > 10 µM (inactive) | > 10 µM (inactive) | > 10 µM (inactive) | > 10 µM (inactive) | > 10 µM (inactive) | > 10 µM (inactive) | > 10 µM (inactive) | > 10 µM (inactive) | > 10 µM (inactive) | > 10 µM (inactive) | > 10 µM (inactive) | > 10 µM (inactive) |
| CC1=C2C(=O)OCC23C=COC3(C)O1 (stereo not given) | 29.1 µM (inactive) | 33.4 µM (inactive) | 19.4 µM (inactive) | 29.3 µM (inactive) | 39.4 µM (inactive) | 37 µM (inactive) | 27.9 µM (inactive) | 50.4 µM (inactive) | 25.4 µM (inactive) | 18.6 µM (inactive) | 26.9 µM (inactive) | 29.3 µM (inactive) | 38.2 µM (inactive) | 31.8 µM (inactive) | 48.4 µM (inactive) | 20.4 µM (inactive) | 37.7 µM (inactive) | 21.5 µM (inactive) | 34.3 µM (inactive) | 31.4 µM (inactive) |
| CC(=O)N[C@H]1CCCC[C@@H]1OC(C)=O | > 100 µM (inactive) | > 100 µM (inactive) | > 100 µM (inactive) | > 100 µM (inactive) | > 100 µM (inactive) | > 100 µM (inactive) | > 100 µM (inactive) | > 100 µM (inactive) | > 100 µM (inactive) | > 100 µM (inactive) | > 100 µM (inactive) | > 100 µM (inactive) | > 100 µM (inactive) | > 100 µM (inactive) | > 100 µM (inactive) | > 100 µM (inactive) | > 100 µM (inactive) | > 100 µM (inactive) | > 100 µM (inactive) | > 100 µM (inactive) |
